For one series, the system named is CYP1B1 gene. The series can be described thus: Suppression of CYP1B1 gene expression induced by atmospheric dust (quantitative real-time PCR). To be noted: NHEK; sample 0.001% by mass 24 h, then atmospheric dust (NIST 1648a) 500 μg/mL 48 h; standardized to GAPDH; control without dust = 1; dust + water = 4.30. It is filed as cell-based, human. As for the experimental part: The effect of the inositol derivative on suppressing the expression of a CYP1A1 gene and a CYP1B1 gene in normal human epidermal keratinocytes (NHEK, manufactured by KURABO INDUSTRIES LTD.) was measured under the following conditions.
The NHEK cells were seeded in a HuMedia KG2 medium manufactured by KURABO INDUSTRIES LTD. at the seeding density of 10000 cells/cm^2, and cultured for 24 hours under the conditions of 37° C. and 5% CO2. […] Using this cDNA as a template, the expression levels of the CYP1A1 gene and the CYP1B1 gene were quantitatively determined by quantitative real-time PCR using primers (QuantiTect Primer Assays, manufactured by QIAGEN) specific to the CYP1A1 gene and the CYP1B1 gene. As an internal standard gene, the expression level of a GAPDH gene, which is a housekeeping gene in which expression fluctuation due to the addition of atmospheric dust is not shown, was quantitatively determined (primer used: Perfect Real Time Primer, manufactured by Takara Bio Inc.), and the expression levels of the CYP1A1 gene and the CYP1B1 gene were standardized based on the expression level of GAPDH. […]

The test system of series [1] is normal human epidermal keratinocytes (NHEK). The series can be described thus: Effect (1) of suppressing ROS production induced by atmospheric dust (ROS assay kit, fluorescence). It is filed as cell-based. The procedure: The effect of the inositol derivative on suppressing ROS production in normal human epidermal keratinocytes (NHEK, manufactured by KURABO INDUSTRIES LTD.) was measured under the following conditions. The NHEK cells were seeded in a HuMedia KG2 medium manufactured by KURABO INDUSTRIES LTD. at the seeding density of 10000 cells/cm^2, and cultured for 24 hours under the conditions of 37° C. and 5% CO2. Next, an aqueous solution of the inositol derivative or an aqueous solution of myo-inositol was added to the culture medium so that the final concentration of the inositol derivative or myo-inositol was 0.001% by mass, or water (pure water) was added to the culture medium, and culturing was further performed for 24 hours. Thereafter, 0.1 mL of a DMSO solution of atmospheric dust (NIST 1648a) was added per 100 mL of the culture medium so that the final concentration of the atmospheric dust in the culture medium was 500 μg/mL, and culturing was further performed for 48 hours in the same conditions as above. Thereafter, the ROS production amount was measured using a ROS assay kit (manufactured by OZ BIOSCIENCES). […] After washing the cells with PBS again, 100 μL of PBS was added, and the fluorescence intensity at an excitation wavelength of 485 nm/an absorption wavelength of 535 nm was measured with a microplate reader i-Control (manufactured by Tecan Group Ltd.). […]

For series [2], the system named is cell line derived from Lewis lung carcinoma (LLC). The series can be described thus: Effect (1) of suppressing proliferation of cancer cells accelerated by atmospheric dust (WST-8). It counts as cell-based. To be noted: sample 0.001% by mass 24 h, then atmospheric dust 500 μg/mL 48 h, WST-8 absorbance 450 nm relative to control without dust = 1, dust + water = 2.31. The procedure:
The effect of the inositol derivative on suppressing the proliferation of cancer cells in a cell line derived from Lewis lung carcinoma (LLC, JCRB Cell Bank) was measured under the following conditions. The LLC cells were seeded at the seeding density of 50000 cells/cm^2 in a culture medium in which a Ham F 10 medium and an L15 medium (both manufactured by Sigma-Aldrich) were mixed at the ratio of 3:7 (volume ratio), and cultured for 24 hours under the conditions of 37° C. and 5% CO2. Next, an aqueous solution of the inositol derivative or an aqueous solution of myo-inositol was added to the culture medium so that the final concentration of the inositol derivative or myo-inositol was 0.001% by mass, or water (pure water) was added to the culture medium, and culturing was further performed for 24 hours. Thereafter, 0.1 mL of a DMSO solution of atmospheric dust (NIST 1648a) was added per 100 mL of the culture medium so that the final concentration of the atmospheric dust in the culture medium was 500 μg/mL, and culturing was further performed for 48 hours in the same conditions as above. Thereafter, the culture medium was replaced with a medium containing 10% (V/V) of WST-8 of Nacalai Tesque Inc., and after further culturing for 3 hours, the absorbance at the wavelength of 450 nm was measured with a microplate reader i-Control (manufactured by Tecan Group Ltd.). […]

This note sets out measurements from US20220257621A1, “CANCER CELL PROLIFERATION SUPPRESSION AGENT AND COMPOSITION FOR SUPPRESSING PROLIFERATION OF CANCER CELLS” (SHOWA DENKO K.K., priority 2019, published 2022).

Regarding `O[C@H]1[C@H](O)[C@@H](O)[C@H](O)[C@@H](O)[C@H]1O` [myo-Inositol, myo-inositol], the “Relative gene expression level CYP1B1” value in the series on CYP1B1 gene was 1.08. Moreover, in series [1] (0.001% by mass, atmospheric dust 500 μg/mL), the “Effect of suppressing ROS production as compared to the water-added group” value is listed as “not recognized”. Moreover, in series [1] (sample 0.001% by mass 24 h, then atmospheric dust 500 μg/mL 48 h, fluorescence relative to control without dust = 1, dust + water = 1.46), the “Relative ROS production amount” value is reported as 1.83. The “Relative cell proliferation amount” value in series [2] is on record as 2.03.
